# In patent publication US20110295343A1, “NEAR-INFRARED ELECTROMAGNETIC MODIFICATION OF CELLULAR STEADY-STATE MEMBRANE POTENTIALS” (priority 2008, published 2011):
# Values joined by “and” are separate entries in the source; they are usually repeats but may differ in a detail not shown here. Equal entries are not always repeated.
# Test system: MRSA (ATCC BAA-43)
# Assay: MRSA/antimicrobial potentiation, CFU on TSB agar with and without antibiotic after laser (Example XXII, Experiments 1-4)
# Type: cell-based, Staphylococcus aureus subsp. aureus
# Settings: for CFU (single plate count): 0.5 μg/ml penicillin G or 4 μg/ml erythromycin, plates 1-5; for AVG (CFU): mean of 5 plates; for Drug Effect: CFU with drug relative to without drug; for Laser Effect (+Drug): Exp vs Cont, both with drug; for Laser Effect (+Meth): both on 30 μg/ml methicillin; for Meth Effect: CFU with methicillin / without; for AVG: mean of plates; for CFU: replicate plates
# Protocol: Four separate experiments have been performed.
# Eight different laser dosages were used to treat a saline-suspension of logarithmically growing MRSA, labeled A1 to H1.
# The treated and a control untreated suspension were diluted and plated in triplicate on trypic soy agar with or without 30 μg/ml methicillin After 24 hrs of growth at 37° C. colonies were counted.
# CFU (colony forming units) were compared between the plates with and without methicillin for both control (untreated) and treated MRSA.
# The treated and a control untreated suspension were diluted and plated in triplicate on trypic soy agar with or without 30 μg/mlmethicillin.
# After 24 hrs of growth at 37° C. colonies were counted.
# The treated and a control untreated suspension were diluted and plated in pentuplicate on trypic soy agar with or without 30 μg/ml methicillin.
# [1] = Cont (no laser), Drug yes, groups A4/C4/E4
# [2] = Cont (no laser), Drug yes, groups B4/D4/F4
# [3] = Exp (laser 870+930 at 5 W 14 min, then 930 at 6 W 9 min), Drug yes, groups B4/D4/F4
# [4] = Exp (laser 870+930 at 5.5 W 12 min, then 930 at 8 W 6 min), Drug yes, groups A4/C4/E4
# [5] = Exp#1 A1 Cont (no laser), agar with 30 μg/ml methicillin
# [6] = Exp#1 A1 Exp (laser treated), agar with 30 μg/ml methicillin
# [7] = Exp#1 B1 Cont (no laser), agar with 30 μg/ml methicillin
# [8] = Exp#1 B1 Exp (laser treated), agar with 30 μg/ml methicillin
# [9] = Exp#1 C1 Cont (no laser), agar with 30 μg/ml methicillin
# [10] = Exp#1 C1 Exp (laser treated), agar with 30 μg/ml methicillin
# [11] = Exp#1 D1 Cont (no laser), agar with 30 μg/ml methicillin
# [12] = Exp#1 D1 Exp (laser treated), agar with 30 μg/ml methicillin
# [13] = Exp#1 E1 Cont (no laser), agar with 30 μg/ml methicillin
# [14] = Exp#1 E1 Exp (laser treated), agar with 30 μg/ml methicillin
# [15] = Exp#1 F1 Cont (no laser), agar with 30 μg/ml methicillin
# [16] = Exp#1 F1 Exp (laser treated), agar with 30 μg/ml methicillin
# [17] = Exp#1 G1 Cont (no laser), agar with 30 μg/ml methicillin
# [18] = Exp#1 G1 Exp (laser treated), agar with 30 μg/ml methicillin
# [19] = Exp#1 H1 Cont (no laser), agar with 30 μg/ml methicillin
# [20] = Exp#1 H1 Exp (laser treated), agar with 30 μg/ml methicillin
# [21] = Exp#2 A2 Cont (no laser), agar with 30 μg/ml methicillin
# [22] = Exp#2 A2 Exp (laser treated), agar with 30 μg/ml methicillin
# [23] = Exp#2 B2 Cont (no laser), agar with 30 μg/ml methicillin
# [24] = Exp#2 B2 Exp (laser treated), agar with 30 μg/ml methicillin
compound,measurement,setting,value
COc1cccc(OC)c1C(=O)N[C@@H]1C(=O)N2[C@@H]1SC(C)(C)[C@@H]2C(=O)O [Methicillin],CFU/ml,[1],2.59E+08 CFU/ml
same,CFU (single plate count),"Cont (no laser), Drug yes, groups A4/C4/E4, agar with 30 μg/ml methicillin, 24 hrs 37° C.",97 CFU and 104 CFU and 82 CFU and 58 CFU and 90 CFU
same,AVG (CFU),[1],86.2 CFU
same,CFU/ml,[2],3.98E+08 CFU/ml
same,CFU (single plate count),"Cont (no laser), Drug yes, groups B4/D4/F4, agar with 30 μg/ml methicillin, 24 hrs 37° C.",149 CFU and 101 CFU and 119 CFU and 153 CFU and 141 CFU
same,AVG (CFU),[2],132.6 CFU
same,Drug Effect,"Cont (no laser), groups A4/C4/E4",0.94
same,Drug Effect,"Cont (no laser), groups B4/D4/F4",1.26
same,CFU/ml,[3],1.27E+08 CFU/ml
same,AVG (CFU),[3],42.4 CFU
same,Drug Effect,"Exp (laser 870+930 at 5 W 14 min, then 930 at 6 W 9 min), groups B4/D4/F4",0.48
same,CFU/ml,[4],1.09E+08 CFU/ml
same,AVG (CFU),[4],36.2 CFU
same,Drug Effect,"Exp (laser 870+930 at 5.5 W 12 min, then 930 at 8 W 6 min), groups A4/C4/E4",0.43
same,CFU (single plate count),"Exp (laser: 870 at 5 W and 930 at 5 W for 14 min followed by 930 at 6 W for 9 min), Drug yes, groups B4/D4/F4, 30 μg/ml methicillin",46 CFU and 34 CFU and 42 CFU and 44 CFU
same,CFU (single plate count),"Exp (laser: 870 at 5.5 W and 930 at 5.5 W for 12 min followed by 930 at 8 W for 6 min), Drug yes, groups A4/C4/E4, 30 μg/ml methicillin",37 CFU and 33 CFU and 36 CFU and 39 CFU
same,Laser Effect (+Drug),"laser 870+930 at 5 W 14 min, then 930 at 6 W 9 min, groups B4/D4/F4",0.32
same,Laser Effect (+Drug),"laser 870+930 at 5.5 W 12 min, then 930 at 8 W 6 min, groups A4/C4/E4",0.42
same,Laser Effect (+Meth),"Exp#1 A1, laser Exp / Cont",0.7035
same,Meth Effect,Exp#1 A1 Cont (no laser),0.6956
same,CFU/ml,[5],4.25E+08 CFU/ml
same,AVG,[5],141.7 CFU
same,CFU,[5],207 CFU and 137 CFU and 81 CFU
same,Meth Effect,Exp#1 A1 Exp (laser treated),0.7419
same,CFU/ml,[6],2.99E+08 CFU/ml
same,AVG,[6],99.7 CFU
same,CFU,[6],99 CFU and 96 CFU and 104 CFU
same,Laser Effect (+Meth),"Exp#1 B1, laser Exp / Cont",0.6693
same,Meth Effect,Exp#1 B1 Cont (no laser),0.8991
same,CFU/ml,[7],5.08E+08 CFU/ml
same,AVG,[7],169.3 CFU
same,CFU,[7],166 CFU and 192 CFU and 150 CFU
same,Meth Effect,Exp#1 B1 Exp (laser treated),0.5657
same,CFU/ml,[8],3.40E+08 CFU/ml
same,AVG,[8],113.3 CFU
same,CFU,[8],102 CFU and 107 CFU and 131 CFU
same,Laser Effect (+Meth),"Exp#1 C1, laser Exp / Cont",0.3259
same,Meth Effect,Exp#1 C1 Cont (no laser),1.267
same,CFU/ml,[9],1.22E+09 CFU/ml
same,AVG,[9],406 CFU
same,CFU,[9],240 CFU and 466 CFU and 512 CFU
same,Meth Effect,Exp#1 C1 Exp (laser treated),0.7192
same,CFU/ml,[10],3.97E+08 CFU/ml
same,AVG,[10],132.3 CFU
same,CFU,[10],95 CFU and 176 CFU and 126 CFU
same,Laser Effect (+Meth),"Exp#1 D1, laser Exp / Cont",1.0087
same,Meth Effect,Exp#1 D1 Cont (no laser),0.837
same,CFU/ml,[11],4.62E+08 CFU/ml
same,AVG,[11],154 CFU
same,CFU,[11],171 CFU and 141 CFU and 150 CFU
same,Meth Effect,Exp#1 D1 Exp (laser treated),0.7627
same,CFU/ml,[12],4.66E+08 CFU/ml
same,AVG,[12],155.3 CFU
same,CFU,[12],164 CFU and 153 CFU and 149 CFU
same,Laser Effect (+Meth),"Exp#1 E1, laser Exp / Cont",1.632
same,Meth Effect,Exp#1 E1 Cont (no laser),0.5828
same,CFU/ml,[13],3.94E+08 CFU/ml
same,AVG,[13],131.3 CFU
same,CFU,[13],147 CFU and 121 CFU and 126 CFU
same,Meth Effect,Exp#1 E1 Exp (laser treated),0.8297
same,CFU/ml,[14],6.43E+08 CFU/ml
same,AVG,[14],214.3 CFU
same,CFU,[14],181 CFU and 232 CFU and 230 CFU
same,Laser Effect (+Meth),"Exp#1 F1, laser Exp / Cont",0.9949
same,Meth Effect,Exp#1 F1 Cont (no laser),0.8735
same,CFU/ml,[15],5.94E+08 CFU/ml
same,AVG,[15],198 CFU
same,CFU,[15],197 CFU and 188 CFU and 209 CFU
same,Meth Effect,Exp#1 F1 Exp (laser treated),0.8289
same,CFU/ml,[16],5.91E+08 CFU/ml
same,AVG,[16],197 CFU
same,CFU,[16],206 CFU (2×) and 179 CFU
same,Laser Effect (+Meth),"Exp#1 G1, laser Exp / Cont",0.9605
same,Meth Effect,Exp#1 G1 Cont (no laser),0.9792
same,CFU/ml,[17],6.58E+08 CFU/ml
same,AVG,[17],219.3 CFU
same,CFU,[17],246 CFU and 222 CFU and 190 CFU
same,Meth Effect,Exp#1 G1 Exp (laser treated),0.8681
same,CFU/ml,[18],6.32E+08 CFU/ml
same,AVG,[18],210.7 CFU
same,CFU,[18],193 CFU and 237 CFU and 202 CFU
same,Laser Effect (+Meth),"Exp#1 H1, laser Exp / Cont",1.0381
same,Meth Effect,Exp#1 H1 Cont (no laser),0.7533
same,CFU/ml,[19],5.77E+08 CFU/ml
same,AVG,[19],192.3 CFU
same,CFU,[19],188 CFU and 206 CFU and 183 CFU
same,Meth Effect,Exp#1 H1 Exp (laser treated),0.815
same,CFU/ml,[20],5.99E+08 CFU/ml
same,AVG,[20],199.7 CFU
same,CFU,[20],211 CFU and 212 CFU and 176 CFU
same,Laser Effect (+Meth),"Exp#2 A2, laser Exp / Cont",1.15
same,Meth Effect,Exp#2 A2 Cont (no laser),0.72
same,CFU/ml,[21],1.07E+08 CFU/ml
same,AVG,[21],35.7 CFU
same,CFU,[21],35 CFU and 47 CFU and 25 CFU
same,Meth Effect,Exp#2 A2 Exp (laser treated),0.87
same,CFU/ml,[22],1.23E+08 CFU/ml
same,AVG,[22],41 CFU
same,CFU,[22],39 CFU and 48 CFU and 36 CFU
same,Laser Effect (+Meth),"Exp#2 B2, laser Exp / Cont",0.54
same,Meth Effect,Exp#2 B2 Cont (no laser),0.7
same,CFU/ml,[23],1.49E+08 CFU/ml
same,AVG,[23],49.7 CFU
same,CFU,[23],47 CFU and 56 CFU and 46 CFU
same,Meth Effect,Exp#2 B2 Exp (laser treated),0.77
same,CFU/ml,[24],8.00E+07 CFU/ml
same,AVG,[24],26.7 CFU
same,CFU,[24],27 CFU and 28 CFU and 25 CFU
same,Laser Effect (+Meth),"Exp#2 C2, laser Exp / Cont",0.23
same,Meth Effect,Exp#2 C2 Cont (no laser),0.99
